# Test system: Malassezia furfur (CBS 7982)
# Assay: In Vitro Antifungal Minimum Inhibitory Concentration (MIC) Testing
# Type: cell-based
# Settings: azoxystrobin itself against Malassezia, value used in the model
# Experimental: Malassezia furfur (CBS 7982) is maintained continuously as a culture at 31° C. in a 250-ml vent-capped polycarbonate Erlenmeyer flask by combining approximately 50 ml of mDixon growth medium and 2.5 ml of previously grown Malassezia culture. For each assay, Malassezia cells from 24-hour-old culture (approximately 7.5×10^8 cells/ml) are diluted 500-fold into mDixon growth medium. Micropipettes are used to transfer 295 ul of diluted cells to each well of a Beckman 267007 polypropylene round-bottom deep-well plate. Product forms are prepared for testing as concentrated stocks in water. Micropipettes are used to transfer 5 ul of appropriately diluted product form to the diluted Malassezia cells in the round-bottom deep-well plate. A semipermeable sealing film is applied to the plate which is then covered with water-soaked cotton batting. The deep-well plates are shaken at 31° C. on a Heidolph Titramax 1000 shaker at 1350 rpm for approximately 20 hours. The samples are mixed by micropipetting before transferring 200 ul of sample culture from each well to a Corning 3596 polystyrene plate. The plates are read immediately for absorbance at 600 nm using a Molecular Devices SpectraMax M5 plate reader. MIC values are presented as ppm of active.
smiles,measurement,value
CO/C=C(/C(=O)OC)c1ccccc1Oc1cc(Oc2ccccc2C#N)ncn1 [Azoxystrobin],minimal inhibitory concentration (MIC),0.2-0.9 ppm
